Measurements: patent US20090258069A1, “Delivery of LFA-1 antagonists to the gastrointestinal system” (priority 2008, published 2009)

Tests used:
in vivo [1] = details: rat, iv
[2] = Single dose ocular and IV ADME with [^14C]-Compound 12 in rats, quantitative whole body autoradiography; assay type: in vivo, rat; details: for Compound 12 Concentration, Aqueous humor / Compound 12 Concentration, Conjunctiva (bulbar) / Compound 12 Concentration, Conjunctiva (palpebral) / Compound 12 Concentration, Cornea / Compound 12 Concentration, Iris-ciliary body / Compound 12 Concentration, Lens / Compound 12 Concentration, Optic Nerve / Compound 12 Concentration, Retina and Choroid (with RPE) / Compound 12 Concentration, Sclera / Compound 12 Concentration, Vitreous Humor: ocular dosing in rats; for excretion in feces, of the administered radioactivity: 0 to 168 hours postdose
Description: Quantitative whole body […] assessments were performed.
Little or no drug is observed in systemic distribution.

in vivo [3] = details: rabbit, topical or ocular
[4] = Phase 1 clinical trial, tear PK; assay type: in vivo, human
Excerpt: A 48-hour post-dose sample was obtained following Day 1, 14, and 27.

rats = test: CNS effects in rats, single bolus IV injection; assay type: in vivo, rat
Excerpt: No effect on any other parameters was observed.

dogs [5] = test: 13-week ocular toxicity study in dogs with 4-week recovery (with TK); details: (3%)
[6] = 13-week IV toxicity study in rats with 4-week recovery (with plasma exposure); details: rat; for AUC: AUC0-n
in vivo [7] = details: dog, iv
[8] = Acute toxicity, single dose IV in rats; details: rat, in vivo
Description: 4. Acute Toxicity Studies: For single dose IV in rats, the no observable adverse effect level (NOAEL) was 10 mg/kg IV. For escalating single dose IV and 7-day repeated dose with TK (toxicokinetics) in dogs, the NOAEL was 10 mg/kg IV. For single dose ocular tolerance in rabbits, the NOAEL was 3.5 mg/eye/3× per day (10%).

dogs [9] = test: Pilot ocular tolerance of topically administered Compound 12 in dogs-PK; assay type: in vivo, dog; details: up to 10% strength at 3 doses/day
[10] = as above; assay type: in vivo, dog; details: dog, vitreous fluid, topical; TID for three days with 3.5 mg/eye (10%); ranged from BLOQ; read-out: levels in the vitreous fluid
[11] = Tear PK after a single topical ocular instillation in rabbits
dogs (beagles) = test: Cardiovascular effects in conscious telemetry-instrumented dogs, IV bolus; assay type: in vivo, dog; details: IV bolus injection
CD-1 (ICR) BR mice = test: In vivo mouse bone marrow micronucleus assay; details: repeated IV administrations
rabbits = test: Single dose ocular tolerance in rabbits; assay type: in vivo, rabbit; details: (10%)
[12] = in vivo
[13] = 0.5 hour postdose, ocular 1 mg/eye
[14] = 0.5 hour postdose, ocular 1 mg/eye, male Sprague Dawley, above upper limit of quantification
[15] = 2 hours postdose, ocular 1 mg/eye
[16] = 8 hours postdose, ocular 1 mg/eye
[17] = 24 hours postdose, ocular 1 mg/eye
[18] = 3 mg/kg, 3 mg/kg daily IV bolus, Day 1
[19] = 3 mg/kg, 3 mg/kg daily IV bolus, Week 13
[20] = 10 mg/kg, 10 mg/kg daily IV bolus, Day 1
[21] = 10 mg/kg, 10 mg/kg daily IV bolus, Week 13
[22] = 30 mg/kg, 30 mg/kg daily IV bolus, Day 1
[23] = 30 mg/kg, 30 mg/kg daily IV bolus, Week 13
[24] = rabbit, in vivo, topical or ocular, 1.05 mg
[25] = single instillation of 0.1, 1.0 or 3.0% dose strength

## CS(=O)(=O)c1cccc(C[C@H](NC(=O)c2c(Cl)cc3c(c2Cl)CCN(C(=O)c2ccc4ccoc4c2)C3)C(=O)O)c1 [Compound 12]
In vivo [1]
  NOAEL at 13 week: 30 mg/kg
[2]; 0.5 hour after administration
  Compound 12 Concentration, Aqueous humor: 1770 ng Equivalents [^14C]-Compound 12/g tissue
  Compound 12 Concentration, Conjunctiva (bulbar): 31500 ng Equivalents [^14C]-Compound 12/g tissue
  Compound 12 Concentration, Conjunctiva (palpebral): 26300 ng Equivalents [^14C]-Compound 12/g tissue
  Compound 12 Concentration, Cornea: 17150 ng Equivalents [^14C]-Compound 12/g tissue
  Compound 12 Concentration, Iris-ciliary body: 17550 ng Equivalents [^14C]-Compound 12/g tissue
  Compound 12 Concentration, Lens: 38.8 ng Equivalents [^14C]-Compound 12/g tissue
  Compound 12 Concentration, Optic Nerve: 796 ng Equivalents [^14C]-Compound 12/g tissue
  Compound 12 Concentration, Retina and Choroid (with RPE): 510 ng Equivalents [^14C]-Compound 12/g tissue
  Compound 12 Concentration, Sclera: 2750 ng Equivalents [^14C]-Compound 12/g tissue
  Compound 12 Concentration, Vitreous Humor: 1330 ng Equivalents [^14C]-Compound 12/g tissue
[2]; [13]
  radioactivity concentration, eye: 18100 ng equivalents [^14C]-Compound 12/g
  radioactivity concentration, kidney: 151 ng equivalents [^14C]-Compound 12/g
  radioactivity concentration, liver: 272 ng equivalents [^14C]-Compound 12/g
  radioactivity concentration, uveal tract: 9330 ng equivalents [^14C]-Compound 12/g
[2]; [14]
  radioactivity concentration, esophageal contents: 399000 ng equivalents [^14C]-Compound 12/g
  radioactivity concentration, nasal turbinates: 352000 ng equivalents [^14C]-Compound 12/g
  radioactivity concentration, small intestinal contents: 349000 ng equivalents [^14C]-Compound 12/g
[2]; [15]
  decline of radioactivity concentration, esophageal contents: ~100 fold
  decline of radioactivity concentration, esophagus: approximately 50 fold
[2]; 4.0 hours after administration
  Compound 12 Concentration, Aqueous humor: 116 ng Equivalents [^14C]-Compound 12/g tissue
  Compound 12 Concentration, Conjunctiva (bulbar): 4480 ng Equivalents [^14C]-Compound 12/g tissue
  Compound 12 Concentration, Conjunctiva (palpebral): 21830 ng Equivalents [^14C]-Compound 12/g tissue
  Compound 12 Concentration, Cornea: 1346 ng Equivalents [^14C]-Compound 12/g tissue
  Compound 12 Concentration, Iris-ciliary body: 500 ng Equivalents [^14C]-Compound 12/g tissue
  Compound 12 Concentration, Lens: 9.69 ng Equivalents [^14C]-Compound 12/g tissue
  Compound 12 Concentration, Optic Nerve: 0 ng Equivalents [^14C]-Compound 12/g tissue
  Compound 12 Concentration, Retina and Choroid (with RPE): 46.7 ng Equivalents [^14C]-Compound 12/g tissue
  Compound 12 Concentration, Sclera: 387 ng Equivalents [^14C]-Compound 12/g tissue
  Compound 12 Concentration, Vitreous Humor: 183 ng Equivalents [^14C]-Compound 12/g tissue
[2]; [16]
  radioactivity concentration, cecum contents: 57600 ng equivalents [^14C]-Compound 12/g
  radioactivity concentration, large intestinal contents: 133000 ng equivalents [^14C]-Compound 12/g
[2]; 12 hours postdose, ocular 1 mg/eye
  radioactivity concentration, uveal tract: 610 ng equivalents [^14C]-Compound 12/g
[2]; [17]
  radioactivity concentration, cecum contents: 5870 ng equivalents [^14C]-Compound 12/g
  radioactivity concentration, large intestinal contents: 18000 ng equivalents [^14C]-Compound 12/g
[2]; IV administration 10 mg/kg
  excretion in feces, of the administered radioactivity: ~95%
[2]; ocular administration 1 mg/eye
  excretion in feces, of the administered radioactivity: approximately 60%
[2]; ocular or IV
  Urinary excretion, of the administered radioactivity: up to 2%
[2]; pigmented vs albino rats
  binding to melanin: did not preferentially bind to melanin
[2]; rat, for 16 hrs
  levels in conjunctiva/cornea: > 100 nM
[2]; up to 168 hrs, topical ocular or IV dose
  metabolites in pooled plasma, urine and fecal homogenates: no metabolites were isolated
In vivo [3]; 0.105 mg
  AUC: 18900 ng·h/mL
  Cmax: 34000 ng/mL
In vivo [3]; 0.35 mg
  AUC: 18900 ng·h/mL
  Cmax: 21500 ng/mL
[4]; BID and TID
  accumulation in tear with multiple ocular dose administration: no obvious evidence of accumulation
[4]; dosing day 1, maintained throughout the trial
  tear AUC and Cmax values: Dose related increases
rats; 10.0 mg/kg IV, 1 minute to 6 hours postdose in 2/6 animals at each time point
  CNS observation: Transient miosis
rats; single bolus IV
  effect on any other CNS parameters: No effect
Dogs [5]
  NOAEL: 1.05 mg/eye/3× per day
[6]; [18]
  AUC: 148 ng·h/mL
  Cmax: 305 ng/mL
[6]; [19]
  AUC: 241 ng·h/mL
  Cmax: 378 ng/mL
[6]; [20]
  AUC: 536 ng·h/mL
  Cmax: 1050 ng/mL
[6]; [21]
  AUC: 907 ng·h/mL
  Cmax: 1690 ng/mL
[6]; [22]
  AUC: 2350 ng·h/mL
  Cmax: 5120 ng/mL
[6]; [23]
  AUC: 7470 ng·h/mL
  Cmax: 16900 ng/mL
In vivo [7]
  NOAEL at 4 week: 10 mg/kg
[8]
  NOAEL: 10 mg/kg
Dogs [9]
  ocular safety and tolerability: safe and well tolerated
[10]
  concentration at 3 days: ≤ 18 ng/mL
[11]; [24]
  AUC: 183000 ng·h/mL
  Cmax: 314000 ng/mL
[11]; [25]
  time of return of tear concentration to baseline: ≤ 4 h
  time to maximal mean tear concentration: ≤ 30 min
Dogs (beagles)
  effects on electrocardiography or hemodynamic parameters: No effects
CD-1 (ICR) BR mice
  mouse bone marrow micronucleus assay: negative
rabbits
  NOAEL: 3.5 mg/eye/3× per day
[12]
  ocular dose absorbed into the systemic circulation: 6.9-32%
